In brackets after ≈: the same amount, converted by molar mass.
Columns and labels:
[1] = Solubility determination at different pH; type: physicochemical; conditions: aqueous buffer
[2] = Stability experiment under conditions of influencing factors (high temperature / high humidity); type: physicochemical; conditions: for HPLC purity: area normalized purity
Source text: Stability data of the crystal form A of the fumarate salt of the compound I under conditions of influencing factors is provided in Table 17 (HPLC purity is area normalized purity).

[3] = Dynamic water adsorption (DVS) experiment; type: physicochemical; conditions: 25° C.
Experimental: Device information: SMS (Surface Measurement Systems) Intrinsic
Experimental method: temperature: 25° C.; protective gas N2; maximum equilibration time: 120 min; RH range: 0%-90%-0%.

[4] = molecular target: T1, CCDC6-RET (Homo sapiens, UniProt P07949); assay: HTRF KinEASE-TK RET enzyme inhibition; type: biochemical; conditions: CCDC6-RET 0.3 nM, ATP 15 μM; read-out: Inhibitory IC50 on RET enzyme
T1 construct: the other entry of the earlier key: CCDC6 (Q16204, Coiled-coil domain-containing protein 6)
T1 sequence (P07949 with tags, fused parts or gaps): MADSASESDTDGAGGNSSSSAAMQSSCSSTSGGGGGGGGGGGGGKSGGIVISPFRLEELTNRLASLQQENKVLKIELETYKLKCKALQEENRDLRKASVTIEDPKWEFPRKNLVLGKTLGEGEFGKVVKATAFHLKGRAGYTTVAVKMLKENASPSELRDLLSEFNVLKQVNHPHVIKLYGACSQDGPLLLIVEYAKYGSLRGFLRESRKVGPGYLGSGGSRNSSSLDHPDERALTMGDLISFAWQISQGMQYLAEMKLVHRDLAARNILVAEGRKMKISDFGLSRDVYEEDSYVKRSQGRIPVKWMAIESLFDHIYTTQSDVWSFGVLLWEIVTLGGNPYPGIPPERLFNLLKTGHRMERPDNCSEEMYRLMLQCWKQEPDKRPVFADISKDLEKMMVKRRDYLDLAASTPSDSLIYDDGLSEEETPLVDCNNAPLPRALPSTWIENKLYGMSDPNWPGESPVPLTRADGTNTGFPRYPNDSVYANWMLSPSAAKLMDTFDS
Experimental: (§1) The inhibitory effects of the crystal form A of the fumarate salt of the compound I on the activity of wild-type RET, mutant-type RET (RET^V804M RET^V804L, and RET^M918T), and fusion-type RET (CCDC6-RET and KIF5B-RET) were determined using HTRF KinEASE-TK (Cisbio) kit.
(§2) After pre-incubation of the above different types of RET enzymes and different concentrations of the test compounds (9 concentration points) at room temperature for 30 min, a substrate and adenosine triphosphate (ATP) were added to initiate the reaction. After incubation at room temperature for 40 min, TK antibody-cryptate and streptavidin-XL665 were added, and after incubation at room temperature for 60 min, the detection was performed.
(§3) With the solvent group (DMSO) as the negative control and the buffer group (without RET enzyme) as the blank control, the relative inhibitory activity percentages of the compound at different concentrations were computed as per the following equation: Relative inhibitory activity percentage=1−(compound group of different concentrations-blank control)/(negative control-blank control)*100%
(§4) The relative inhibitory activity percentages of the compound at different concentrations were plotted with respect to the compound concentrations, and the curve was fitted in accordance with a four-parameter model to compute the IC50 value as per the following equation: y=min+(max−min)/(1+(x/IC50)^(−Hillslope)) • where y is the relative inhibitory activity percentage, max and min are a maximum value of the fitted curve, and a minimum value of the fitted curve respectively, x is a logarithmic concentration of the compound, and Hillslope is a slope of the curve.

[5] = molecular target: RET^M918T (Homo sapiens, UniProt P07949, M918T); assay: HTRF KinEASE-TK RET enzyme inhibition; type: biochemical; conditions: RET^M918T 0.3 nM, ATP 15 μM; read-out: Inhibitory IC50 on RET enzyme
RET^M918T, sequence (P07949 29-1114 M918T): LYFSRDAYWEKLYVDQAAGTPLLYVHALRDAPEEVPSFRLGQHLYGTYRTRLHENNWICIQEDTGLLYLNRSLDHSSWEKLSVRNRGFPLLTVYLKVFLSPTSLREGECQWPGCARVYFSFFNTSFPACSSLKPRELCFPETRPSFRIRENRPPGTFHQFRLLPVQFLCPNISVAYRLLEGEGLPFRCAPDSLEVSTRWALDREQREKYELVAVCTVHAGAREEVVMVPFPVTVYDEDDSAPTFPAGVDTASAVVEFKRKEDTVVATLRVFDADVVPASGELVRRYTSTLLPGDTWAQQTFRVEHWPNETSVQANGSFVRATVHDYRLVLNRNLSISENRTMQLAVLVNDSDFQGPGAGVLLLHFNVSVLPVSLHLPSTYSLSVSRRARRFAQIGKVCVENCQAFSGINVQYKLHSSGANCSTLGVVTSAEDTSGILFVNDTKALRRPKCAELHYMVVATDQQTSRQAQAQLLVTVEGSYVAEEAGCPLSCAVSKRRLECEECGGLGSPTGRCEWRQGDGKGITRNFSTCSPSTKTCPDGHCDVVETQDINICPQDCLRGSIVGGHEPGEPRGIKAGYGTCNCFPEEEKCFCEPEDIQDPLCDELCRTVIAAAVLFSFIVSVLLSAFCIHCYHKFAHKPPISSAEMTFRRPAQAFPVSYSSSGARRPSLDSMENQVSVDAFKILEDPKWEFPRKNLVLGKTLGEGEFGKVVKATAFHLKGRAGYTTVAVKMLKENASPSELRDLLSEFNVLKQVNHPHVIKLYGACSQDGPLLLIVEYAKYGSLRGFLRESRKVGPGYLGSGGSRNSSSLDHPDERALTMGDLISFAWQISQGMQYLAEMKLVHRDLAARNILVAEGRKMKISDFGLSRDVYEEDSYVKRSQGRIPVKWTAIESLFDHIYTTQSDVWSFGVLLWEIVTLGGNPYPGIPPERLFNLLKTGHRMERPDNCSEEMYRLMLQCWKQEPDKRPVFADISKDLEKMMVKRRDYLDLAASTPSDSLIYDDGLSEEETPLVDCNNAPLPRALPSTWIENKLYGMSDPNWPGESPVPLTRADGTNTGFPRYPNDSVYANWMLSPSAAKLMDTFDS
Experimental: as §1, §2, §3, §4

[6] = molecular target: RET^V804L (Homo sapiens, UniProt P07949, V804L); assay: HTRF KinEASE-TK RET enzyme inhibition; type: biochemical; conditions: RET^V804L 0.6 nM, ATP 10 μM; read-out: Inhibitory IC50 on RET enzyme
RET^V804L, sequence (P07949 29-1114 V804L): as the sequence (P07949 29-1114 M918T) above, with V776L, T890M counted along it
Experimental: as §1, §2, §3, §4

[7] = molecular target: RET^V804M (Homo sapiens, UniProt P07949, V804M); assay: HTRF KinEASE-TK RET enzyme inhibition; type: biochemical; conditions: RET^V804M 0.6 nM, ATP 15 μM; read-out: Inhibitory IC50 on RET enzyme
RET^V804M, sequence (P07949 29-1114 V804M): as the sequence (P07949 29-1114 M918T) above, with V776M, T890M counted along it
Experimental: as §1, §2, §3, §4

[8] = molecular target: wild-type RET (Homo sapiens, UniProt P07949); assay: HTRF KinEASE-TK RET enzyme inhibition; type: biochemical; conditions: RET 0.2 nM, ATP 30 μM; read-out: Inhibitory IC50 on RET enzyme
wild-type RET, sequence (P07949 29-1114): as the sequence (P07949 29-1114 M918T) above, with T890M counted along it
Experimental: as §1, §2, §3, §4

[9] = Pharmacokinetic study in mice; type: in vivo; conditions: female Balb/c mice, PO 1 mg/kg, plasma compound I
Experimental: Female Balb/c mice (6 mice) were orally administered with 1 mg/kg of the crystal form A of the fumarate salt of the compound I by gavage. The compound was first dissolved with 0.5% methylcellulose solution and ultrasonicated to ensure complete dissolution or uniform suspension of the compound. 30 min, 1 […], and 24 h after administration, 0.2 mL of blood (EDTA-K2 anticoagulated) was venously collected. The collected whole blood was temporarily stored in an ice box, and centrifuged for 10 min within 2 h to separate the plasma (4° C.). The collected plasma was stored in a refrigerator at -80° C. prior to testing. The blood concentration of the compound I was detected by LC-MS/MS, and the linear range was from 10 to 10000 ng/mL.

[10] = High humidity 25° C. ± 2° C./92.5% RH ± 5% RH, Day 30
[11] = High temperature 60° C. ± 2° C., Day 30

## Cc1cc(Nc2cc(C)[nH]n2)nc(-c2ccc(N3CC4CC(C3)N4Cc3ccc(-n4cc(F)cn4)nc3)nc2)n1
[1]; Buffer pH 1.0
  solubility: ≥ 12200 µg/mL
[1]; Buffer pH 2.0
  solubility: 3500 µg/mL (≈ 6.51 mM)
[1]; Buffer pH 3.0
  solubility: 2500 µg/mL (≈ 4.65 mM)
[2]; Day 0
  Appearance: White solid
  HPLC purity: 99.6%
[2]; [10]
  Appearance: White solid
  Crystal form: form A
  HPLC purity: 99.5%
[2]; [11]
  Appearance: White solid
  Crystal form: form A
  HPLC purity: 99.3%
[3]; RH range 0%-90%-0%
  crystal form before and after the DVS test: remained changed
[3]; humidity decreased from 90% to 0%
  desorption of adsorbed water (DVS): fully desorbed
[3]; humidity increased to 90%
  water absorbed (DVS): about 0.7%
[4]
  IC50: 2.48 ± 1 nM
[5]
  IC50: 2.23 ± 0.64 nM
[6]
  IC50: 1.59 ± 0.51 nM
[7]
  IC50: 0.6 ± 0.2 nM
[8]
  IC50: 0.56 ± 0.09 nM
[9]
  Cl: 1.47 mL/min/kg
  Vd: 0.356 L/kg
[9]; mouse
  AUC(0-inf): 11400 ng·h/mL
  AUC(0-t): 11400 ng·h/mL
  Cmax: 2060 ng/mL
  Tmax: 1 h
  half-life: 2.81 h

Reference: patent US12630557B2, “Salt and crystal form of pyrimidine compound, and preparation methods therefor” (Sichuan Kelun-Biotech Biopharmaceutical Co., Ltd., priority 2020, dated 2026)
